# According to patent US10046050B2, “Targeting immunotherapy for amyloidosis” (UNIVERSITY OF TENNESSEE RESEARCH FOUNDATION, priority 2014, dated 2018):
# Like-named read-outs stand apart in the source and are kept apart here.
# Tests used:
# mAb 7D8 = assay: Surface plasmon resonance of mAb 7D8 binding to amino-coupled peptopes
# Method: Analyses were performed using a BIAcore X surface plasmon resonance instrument (GE Healthcare) and all reagents were obtained from GE Healthcare. For chip preparation, the peptides were attached to CM-5 chips using the amino-coupling method supplied with the instrument software. Briefly, chips were activated by injection (35 μL) of a mixture of ECD/NHS at a flow rate of 5 μL/min. Immediately thereafter, 35 μL of the test peptide (peptope p75, p76, p77, or p78), diluted to 1 μg/mL in NaOAc buffer, pH 5.5, was injected. After peptide coupling, the remaining active groups on the chip were blocked by injection of 35 μL of 1 M ethanolamine-HCl pH 8.5. Test peptides p75, p76, p77, or p78 were coupled to the Fc-1 channel and peptide p5, which served as a control, was coupled to the Fc-2 channel. A sensorgram was initiated on each chip in HBS-EP buffer at 10 μL per min. An initial regeneration step consisting of a 20 μL injection of pH 2.5 glycine buffer was performed and the baseline allowed to equilibrate. Antibody 7D8 was diluted to a stock of 10 μg/mL in HBS-EP buffer which was further diluted to a 0.4 μg/mL (˜2.7 nM) working dilution immediately before injection. The antibody was injected (50 μL) and the data collected for 200 seconds using a delayed wash cycle. The chip was subjected to a regeneration step before the next test injection. Binding data were extracted from the sensorgram, aligned, and analyzed using the BIAevaluation software by fitting to the following binding models (i) Langmuir, (ii) Langmuir with mass transfer, and (iii) Interaction of a bivalent analyte [A+B→AB; AB+B→AB2].
# human Tal ALκ amyloid = assay: Immunohistochemistry of biotinyl-7D8 on formalin-fixed tissue sections; assay type: binding; details: kidney, label = pre-treatment peptide, or 7D8 alone
# Method: (§1) The binding of biotinylated 7D8 mAb with autopsy-derived, formalin-fixed, paraffin-embedded tissue sections containing, ATTR, ALκ or ALλ was assessed immunohistochemically. Consecutive tissue sections were stained with: Congo red; biotinylated 7D8 alone; 7D8 with the control peptide p5; or, 7D8 mAb with peptope p75 pretreatment. Briefly, six μm-thick tissue sections were subjected to antigen retrieval by incubation in CitraPlus solution (BioGenex, San Ramon, Calif.) for 30 min at 90° C. Unlabeled peptope p75 was added to the tissue at ˜3 μg/mL and incubated overnight at 4° C. Unbound reagent was removed by washing in PBST for 30 min. Tissues sections (with or without peptope pretreatment) were immunostained by addition of 3 μg/mL biotinylated 7D8 mAb. Slides were developed by addition of streptavidin-HRP (Vectastain Elite ABC kit, Vector Labs) followed by 3,3′-diaminobezidene (Vector Labs) and examined using a Leica DM500 microscope.
# human ATTR amyloid = assay: as above; assay type: binding; details: label = pre-treatment peptide, or 7D8 alone
# Method: as §1
# human Den ALλ amyloid = assay: as above; assay type: binding; details: thyroid, label = pre-treatment peptide, or 7D8 alone
# Method: as §1
# [1] = system: RAW 264.7 murine macrophages; assay: Phagocytosis assay of pHrodo green-labeled human ATTR extract; assay type: cell-based; details: 80 min
# Method: The phagocytosis of human cardiac ATTR extract induced by peptope and 7D8 was studied using a pH-sensitive fluorescence enhancement assay. The RAW 264.7 murine macrophages (1×10^6 cells per well) were plated into the wells of a 12-well culture dish, containing a glass coverslip, and incubated at 37° C. overnight. On the day of the experiment, 10 μg of pHrodo green-labeled human ATTR extract was mixed with 4 μg of p75 peptide or, as a negative control, an equal volume of PBS (pHrodo green [Thermofisher, Molecular Probes] is a pH sensitive dye that is only fluorescent at pH 4, i.e. in a acidified macrophage endosome/lysosome). The sample was incubated for 30 min. Unbound p75 peptide was removed by washing twice, by centrifugation at 10,000×g using PBS. The 7D8 and MOPC mAb solutions (MOPC served as a negative isotype control) were centrifuged at 10,000×g to remove particulates before adding 10 μg to the peptide-coated ATTR extract. The samples were incubated for 1 h before being washed by centrifugation as above, before being added to the wells of the microplate. The cells were incubated with the amyloid extract for 80 min, at which time Hoescht dye (Thermofisher) was added to the well (to stain the cell nuclei blue), and the mixture incubated for a further 10 min. The coverslips were then washed and mounted on a slide for epifluorescent microscopy and digital image acquisition using blue (nuclei) and green (phagocytosed amyloid) fluorescent filters. Images (original magnification 160×) were analyzed digitally and the area of green fluorescence per cell (“phagocytosis index”) was calculated using 3 or 4 digital images acquired from each coverslip. Approximately 2000 cells were analyzed for each sample.
# [2] = Langmuir with Mass Transfer, 7D8 2.7 nM
sequence,measurement,setting,value
"KAQKAQAKQAKQAQKAQKAQAKQAKQAQHEDT [p75, KAQKAQAKQAKQAQKAQKAQAKQAKQAQHEDT]",Rmax (RU),"mAb 7D8; Bivalent Analyte, 7D8 2.7 nM",4.79E+03 RU
same,ka1,"mAb 7D8; Bivalent Analyte, 7D8 2.7 nM",85300 M⁻¹ s⁻¹
same,ka2 (1/RUs),"mAb 7D8; Bivalent Analyte, 7D8 2.7 nM",8.22E−04 1/RUs
same,kd1,"mAb 7D8; Bivalent Analyte, 7D8 2.7 nM",0.0674 s⁻¹
same,kd2,"mAb 7D8; Bivalent Analyte, 7D8 2.7 nM",0.0628 s⁻¹
same,KA,mAb 7D8; [2],6.98e+08 M⁻¹
same,Req (RU),mAb 7D8; [2],500 RU
same,Rmax (RU),mAb 7D8; [2],765 RU
same,ka,mAb 7D8; [2],5.95e+06 M⁻¹ s⁻¹
same,kd,mAb 7D8; [2],0.00853 s⁻¹
same,kobs,mAb 7D8; [2],0.0246 s⁻¹
same,kt (RU/(M*s)),mAb 7D8; [2],9.14E+08 RU/(M*s)
same,Kd,"mAb 7D8; Langmuir with Mass Transfer, 7D8 2.7 nM, read-out: KD",1.43 nM
same,KA,"mAb 7D8; Langmuir, 7D8 2.7 nM",1.59e+08 M⁻¹
same,Req (RU),"mAb 7D8; Langmuir, 7D8 2.7 nM",654 RU
same,Rmax (RU),"mAb 7D8; Langmuir, 7D8 2.7 nM",2.18E+03 RU
same,ka,"mAb 7D8; Langmuir, 7D8 2.7 nM",369000 M⁻¹ s⁻¹
same,kd,"mAb 7D8; Langmuir, 7D8 2.7 nM",0.00233 s⁻¹
same,kobs,"mAb 7D8; Langmuir, 7D8 2.7 nM",0.00333 s⁻¹
same,Kd,"mAb 7D8; Langmuir, 7D8 2.7 nM, read-out: KD",6.3 nM
same,binding kinetics relative to the other peptopes,mAb 7D8; surface plasmon resonance,slow and reduced off-rate
same,Kd,"mAb 7D8; text summary of surface plasmon resonance measurements, read-out: dissociation constants (KD)",1 to 5 nM
same,immunohistochemical staining with biotinyl-7D8,human Tal ALκ amyloid,Specific positive staining
same,immunohistochemical staining with biotinyl-7D8,"human ATTR amyloid; Gre ATTR, esophagus",Specific positive staining
same,immunohistochemical staining with biotinyl-7D8,"human ATTR amyloid; Gre ATTR, heart",Specific positive staining
same,immunohistochemical staining with biotinyl-7D8,"human ATTR amyloid; Gre ATTR, nerve",Specific positive staining
same,immunohistochemical staining with biotinyl-7D8,"human ATTR amyloid; Gre ATTR, small bowel",Specific positive staining
same,immunohistochemical staining with biotinyl-7D8,"human ATTR amyloid; Ken ATTR, heart",Specific positive staining
same,immunohistochemical staining with biotinyl-7D8,"human ATTR amyloid; Sno ATTR, heart",Specific positive staining
same,immunohistochemical staining with biotinyl-7D8,human Den ALλ amyloid,Specific positive staining
same,"phagocytosis index (area of green fluorescence per cell), 25% Percentile",[1],0.5842
same,"phagocytosis index (area of green fluorescence per cell), 75% Percentile",[1],2.603
same,"phagocytosis index (area of green fluorescence per cell), Maximum",[1],2.603
same,"phagocytosis index (area of green fluorescence per cell), Mean",[1],1.367
same,"phagocytosis index (area of green fluorescence per cell), Median",[1],0.9137
same,"phagocytosis index (area of green fluorescence per cell), Minimum",[1],0.5842
